Reference: patent US10322097B2, “Treatment of subjects with multidrug-resistant cancer” (priority 2015, dated 2019)
Values after ≈ are worked out from the molar mass of the structure shown. Read-outs that look alike come from different tables or passages of the source.

Legend:
[1] = tested on: HCT116 p53+/+ colon cancer cells; assay: MTT cytotoxicity assay, HCT116 p53+/+; assay type: cell-based; conditions: read-out: IC50 HCT116 p53+/+ colon cancer cells
Description: (§1) Cell cultures and cytotoxicity assays have been used. Celastrol was dissolved in DMSO at a final concentration of 100 mmol/L and stored at −20° C. Cytotoxicity was assessed using the 3-(4,5-dimethylthiazol-2-yl)-2,5-diphenyltetrazolium bromide assay. 4000 cells from HCT116 p53^+/+ or p53^−/− colon cancer cells and DLD-1 Bax-Bak^+/+ or Bax-Bak^−/− colon cancer cells were seeded on 96-well plates per well. […] Subsequently, 10 μL of MTT reagents were added to each well and incubated at 37° C. for 4 hours followed by the addition of 100 μL solubilization buffer (10% SDS in 0.01 mol/L HCl) and overnight incubation. […] The percentage of cell viability was calculated using the following formula: Cell viability (%)=Cells number treated/Cells number DMSO control×100. Data were obtained from three independent experiments.

[2] = tested on: SGC-7901 (Gastric) cisplatin resistant cancer cells; assay: MTT cytotoxicity assay, SGC-7901 cisplatin resistant; assay type: cell-based, human
Description: (§2) Cell cultures and cytotoxicity assays have been used. Celastrol was dissolved in DMSO at a final concentration of 100 mmol/L and stored at −20° C. Cytotoxicity was assessed using the 3-(4,5-dimethylthiazol-2-yl)-2,5-diphenyltetrazolium bromide assay. 4000 cells from A2780 cisplatin sensitive/resistant ovarian cancer cells or SGC-7901 cisplatin sensitive/resistant gastric cancer cells were seeded on 96-well plates per well. After overnight pre-incubation, the cells were exposed to different concentrations of celastrol (0.039-100 μmol/L) or cisplatin for 3 days. Subsequently, 10 μL of MTT reagents were added to each well and incubated at 37° C. for 4 hours followed by the addition of 100 μL solubilization buffer (10% SDS in 0.01 mol/L HCl) and overnight incubation. Absorbance at 585 nm was determined from each well the next day. The percentage of cell viability was calculated using the following formula: Cell viability (%)=Cells number treated/Cells number DMSO control×100. Data were obtained from three independent experiments.

[3] = tested on: A2780 (Ovary) cisplatin sensitive cancer cells; assay: MTT cytotoxicity assay, A2780 cisplatin sensitive; assay type: cell-based, human; conditions: MTT, 3 days; read-out: IC50 A2780 (Ovary) (Cisplatin sensitive)
Description: as §2

[4] = tested on: DLD-1 Bax-Bak+/+ colon cancer cells; assay: MTT cytotoxicity assay, DLD-1 Bax-Bak+/+; assay type: cell-based; conditions: MTT, 3 days; for IC50: Homo sapiens, DLD-1, 72 h, read-out: IC50 DLD-1 Bax-Bak+/+ colon cancer cells
Description: as §1

[5] = tested on: DLD-1 Bax-Bak-/- colon cancer cells; assay: MTT cytotoxicity assay, DLD-1 Bax-Bak-/-; assay type: cell-based; conditions: for Resistant Factor: IC50 DLD-1 Bax-Bak-/- divided by IC50 DLD-1 Bax-Bak+/+; for IC50: Homo sapiens, DLD-1, 72 h, read-out: IC50 DLD-1 Bax-Bak-/- colon cancer cells
Description: as §1

[6] = tested on: SGC-7901 (Gastric) cisplatin sensitive cancer cells; assay: MTT cytotoxicity assay, SGC-7901 cisplatin sensitive; assay type: cell-based, human; conditions: MTT, 3 days; read-out: IC50 SGC-7901 (Gastric) (Cisplatin sensitive)
Description: as §2

[7] = tested on: HCT116 p53-/- colon cancer cells; assay: MTT cytotoxicity assay, HCT116 p53-/-; assay type: cell-based; conditions: for Resistant Factor: IC50 HCT116 p53-/- divided by IC50 HCT116 p53+/+; for IC50: read-out: IC50 HCT116 p53-/- colon cancer cells
Description: as §1

[8] = tested on: A2780 (Ovary) cisplatin resistant cancer cells; assay: MTT cytotoxicity assay, A2780 cisplatin resistant; assay type: cell-based, human
Description: as §2

[9] = tested on: MCF-7 (Breast) doxorubicin resistant cancer cells; assay: MTT cytotoxicity assay, MCF-7 doxorubicin resistant; assay type: cell-based, human
Description: as §2, with “MCF-7 doxorubicin” for “A2780 cisplatin”, “breast” for “ovarian”, “CEM doxorubicin” for “SGC-7901 cisplatin”, “leukemia” for “gastric cancer”, “doxorubicin” for “cisplatin”

[10] = tested on: A2780 (Ovary) taxol resistant cancer cells; assay: MTT cytotoxicity assay, A2780 taxol resistant; assay type: cell-based, human; conditions: for Resistant Factor: A2780 taxol resistant versus taxol sensitive
Description: (§3) Cell cultures and cytotoxicity assays have been used. Celastrol was dissolved in DMSO at a final concentration of 100 mmol/L and stored at −20° C. Cytotoxicity was assessed using the 3-(4,5-dimethylthiazol-2-yl)-2,5-diphenyltetrazolium bromide assay. 4000 cells from A549 (lung), A2780 (ovary), HCT-8 (colon) and MCF-7 (breast) cancer cells were seeded on 96-well plates per well. After overnight pre-incubation, the cells were exposed to different concentrations of celastrol (0.039-100 μmol/L) or taxol for 3 days. Subsequently, 10 μL of MTT reagents was added to each well and incubated at 37° C. for 4 hours followed by the addition of 100 μL solubilization buffer (10% SDS in 0.01 mol/L HCl) and overnight incubation. Absorbance at 585 nm was determined from each well the next day. The percentage of cell viability was calculated using the following formula: Cell viability (%)=Cells number treated/Cells number DMSO control×100. Data were obtained from three independent experiments.

[11] = tested on: A2780 (Ovary) taxol sensitive cancer cells; assay: MTT cytotoxicity assay, A2780 taxol sensitive; assay type: cell-based; conditions: Homo sapiens, A2780, 72 h; MTT, 3 days; read-out: IC50 A2780 (Ovary) (Taxol sensitive)
Description: as §3

[12] = tested on: A549 taxol-resistant lung cancer cells; assay: MTT cytotoxicity of taxol in presence or absence of celastrol; assay type: cell-based; conditions: Homo sapiens, A549, 72 h, 3 days
Description: Cell cultures and cytotoxicity assays have been carried out. Celastrol was dissolved in DMSO at a final concentration of 100 mmol/L and stored at −20° C. Cytotoxicity was assessed using the 3-(4,5-dimethylthiazol-2-yl)-2,5-diphenyltetrazolium bromide assay. 4000 cells from A549 taxol-resistant lung cancer cells were seeded on 96-well plates per well. After overnight pre-incubation, the cells were exposed to different concentrations of taxol (0.019-100 μmol/L) in the presence or absence of celastrol (0.5 μM) for 3 days. Subsequently, 10 μL of MTT reagents was added to each well and incubated at 37° C. for 4 hours followed by the addition of 100 μL solubilization buffer (10% SDS in 0.01 mol/L HCl) and overnight incubation. […] The percentage of cell viability was calculated using the following formula: Cell viability (%)=Cells number treated/Cells number DMSO control×100. Data were obtained from three independent experiments.

[13] = tested on: A549 (Lung) taxol resistant cancer cells; assay: MTT cytotoxicity assay, A549 taxol resistant; assay type: cell-based, human; conditions: for Resistant Factor: A549 taxol resistant versus taxol sensitive
Description: as §3

[14] = tested on: HCT-8 (Colon) taxol resistant cancer cells; assay: MTT cytotoxicity assay, HCT-8 taxol resistant; assay type: cell-based, human; conditions: for Resistant Factor: HCT-8 taxol resistant versus taxol sensitive
Description: as §3

[15] = tested on: A549 (Lung) taxol sensitive cancer cells; assay: MTT cytotoxicity assay, A549 taxol sensitive; assay type: cell-based; conditions: Homo sapiens, A549, 72 h; MTT, 3 days; read-out: IC50 A549 (Lung) (Taxol sensitive)
Description: as §3

[16] = tested on: MCF-7 (Breast) taxol resistant cancer cells; assay: MTT cytotoxicity assay, MCF-7 taxol resistant; assay type: cell-based, human
Description: as §3

[17] = tested on: MCF-7 (Breast) taxol sensitive cancer cells; assay: MTT cytotoxicity assay, MCF-7 taxol sensitive; assay type: cell-based; conditions: Homo sapiens, MCF7, 72 h; MTT, 3 days; read-out: IC50 MCF-7 (Breast) (Taxol sensitive)
Description: as §3

[18] = tested on: HCT-8 (Colon) taxol sensitive cancer cells; assay: MTT cytotoxicity assay, HCT-8 taxol sensitive; assay type: cell-based; conditions: Homo sapiens, HCT-8, 72 h; MTT, 3 days; read-out: IC50 HCT-8 (Colon) (Taxol sensitive)
Description: as §3

[19] = target: P-gp (Homo sapiens, UniProt P08183); assay: Rho123 efflux assay in A549 taxol-resistant lung cancer cells (flow cytometry); conditions: 0.5 μM celastrol, pristimerin or dihydrocelastrol, or 10 μM verapamil, 24 h, then Rho123 1 h
Description: A549 taxol-resistant lung cancer cells were seeded in 6 well-plates at a final concentration of 2×10^5 cells per well and cultured for 24 h at 37° C. in an atmosphere containing 5% CO2. […] Subsequently, 5 mg/mL Rho123 was added to each well and the wells were incubated for another 1 h at 37° C. At the end of the incubation, the accumulation of Rho123 was stopped by washing the cells five times with ice-cold PBS. After cell centrifugation, cell pellets were resuspended in 400 μL PBS. […] All data acquisition and analyses were performed with CellQuest (BD Biosciences, San Jose, Calif., USA) in triplicate in three independent experiments, and the results were shown as the mean of fluorescence intensity.
A549 taxol-resistant lung cancer cells were seeded in 6 well-plates at a final concentration of 2×10^5 cells per well and cultured for 24 h at 37° C. in an atmosphere containing 5% CO2. […] All data acquisition and analyses were performed with CellQuest (BD Biosciences, San Jose, Calif., USA) in triplicate in three independent experiments, and the results were shown as the mean of fluorescence intensity.

[20] = Homo sapiens, HCT-116, 72 h, MTT, 3 days

P-gp, sequence (P08183 whole entry): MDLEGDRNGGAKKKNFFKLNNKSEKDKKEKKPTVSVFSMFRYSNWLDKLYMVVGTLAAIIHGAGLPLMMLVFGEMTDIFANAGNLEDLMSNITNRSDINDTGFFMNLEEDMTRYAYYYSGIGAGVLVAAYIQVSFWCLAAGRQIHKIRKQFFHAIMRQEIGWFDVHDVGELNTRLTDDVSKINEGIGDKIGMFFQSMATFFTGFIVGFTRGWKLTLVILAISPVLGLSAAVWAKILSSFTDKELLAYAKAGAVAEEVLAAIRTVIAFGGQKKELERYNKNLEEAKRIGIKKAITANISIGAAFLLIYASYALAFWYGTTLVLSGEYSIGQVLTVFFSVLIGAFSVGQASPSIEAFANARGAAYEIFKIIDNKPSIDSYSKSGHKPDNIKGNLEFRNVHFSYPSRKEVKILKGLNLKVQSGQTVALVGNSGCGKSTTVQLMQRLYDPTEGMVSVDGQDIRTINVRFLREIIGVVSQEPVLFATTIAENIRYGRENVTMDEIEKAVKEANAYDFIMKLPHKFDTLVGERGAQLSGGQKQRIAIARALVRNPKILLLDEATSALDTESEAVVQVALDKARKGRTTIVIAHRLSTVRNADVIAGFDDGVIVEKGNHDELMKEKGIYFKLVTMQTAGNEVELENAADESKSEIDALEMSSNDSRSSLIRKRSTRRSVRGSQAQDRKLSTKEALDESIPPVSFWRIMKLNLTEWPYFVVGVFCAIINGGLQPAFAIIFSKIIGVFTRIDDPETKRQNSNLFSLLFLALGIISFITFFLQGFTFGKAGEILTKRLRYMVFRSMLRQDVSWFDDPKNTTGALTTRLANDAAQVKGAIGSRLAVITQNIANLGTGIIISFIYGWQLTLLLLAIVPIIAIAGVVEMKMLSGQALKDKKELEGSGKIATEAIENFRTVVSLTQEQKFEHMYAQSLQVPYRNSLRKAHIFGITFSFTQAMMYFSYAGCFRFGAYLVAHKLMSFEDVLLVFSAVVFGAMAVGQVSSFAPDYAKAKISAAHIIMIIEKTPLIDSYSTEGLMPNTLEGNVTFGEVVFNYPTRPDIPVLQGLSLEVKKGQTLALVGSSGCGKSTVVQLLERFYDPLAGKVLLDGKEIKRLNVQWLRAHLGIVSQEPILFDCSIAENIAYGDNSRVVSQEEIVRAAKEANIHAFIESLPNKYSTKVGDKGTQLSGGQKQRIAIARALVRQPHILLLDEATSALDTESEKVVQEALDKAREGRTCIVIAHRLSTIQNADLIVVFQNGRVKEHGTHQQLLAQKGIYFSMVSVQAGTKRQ

N.N.[Cl][Pt][Cl] [Cisplatin, cisplatin]
IC50 ([1]; MTT, 3 days): 0.19 µM
IC50 ([2]; MTT, 3 days, read-out: IC50 SGC-7901 (Gastric) (Cisplatin resistant)): 6.19 µM
Resistant Factor ([2]; SGC-7901 cisplatin resistant versus cisplatin sensitive): 4.9
IC50 [3]: 1.24 µM
IC50 DLD-1 Bax-Bak+/+ colon cancer cells [4]: 1.994 µg/mL
Resistant Factor [5]: 1.84
IC50 DLD-1 Bax-Bak-/- colon cancer cells ([5]; MTT, 3 days): 3.678 µg/mL
IC50 [6]: 1.26 µM
Resistant Factor [7]: 92.37
IC50 ([7]; MTT, 3 days): 17.6 µM
Resistant Factor ([8]; A2780 cisplatin resistant versus cisplatin sensitive): 14.92
IC50 ([8]; MTT, 3 days, read-out: IC50 A2780 (Ovary) (Cisplatin resistant)): 18.5 µM

COc1cccc2c1C(=O)c1c(O)c3c(c(O)c1C2=O)C[C@@](O)(C(=O)CO)C[C@@H]3O[C@H]1C[C@H](N)[C@H](O)[C@H](C)O1 [Doxorubicin, doxorubicin]
IC50 ([1]; Homo sapiens, HCT-116, 72 h): 0.52 µM
IC50 [4]: 0.0523 µg/mL
IC50 ([5]; MTT, 3 days): 0.539 µg/mL
Resistant Factor [5]: 10.31
IC50 ([7]; Homo sapiens, HCT-116, 72 h): 10.2 µM
Resistant Factor [7]: 19.52
IC50 ([9]; Homo sapiens, MCF7, 72 h, MTT, 3 days, read-out: IC50 MCF-7 (Breast) (Doxorubicin resistant)): 10 µg/mL (≈ 18.4 µM)
Resistant Factor ([9]; MCF-7 doxorubicin resistant versus doxorubicin sensitive): 21.6

COc1cc([C@@H]2c3cc4c(cc3[C@@H](O[C@@H]3O[C@@H]5CO[C@@H](C)O[C@H]5[C@H](O)[C@H]3O)[C@H]3COC(=O)[C@H]23)OCO4)cc(OC)c1O [Etoposide, etoposide]
IC50 [1, 20]: 0.94 µM
IC50 [4]: 2.36 µM
IC50 ([5]; MTT, 3 days): 40.4 µM
Resistant Factor [5]: 17.12
IC50 [7, 20]: 10.6 µM
Resistant Factor [7]: 11.28

CN[C@@H]1C[C@H]2O[C@@](C)([C@@H]1OC)n1c3ccccc3c3c4c(c5c6ccccc6n2c5c31)C(=O)NC4 [Staurosporine, staurosporine]
Resistant Factor [5]: 3.34
IC50 [7, 20]: 0.048 µM
Resistant Factor [7]: 13.01

CC(=O)O[C@H]1C(=O)[C@@]2(C)[C@H]([C@H](OC(=O)c3ccccc3)[C@]3(O)C[C@H](OC(=O)[C@H](O)[C@@H](NC(=O)c4ccccc4)c4ccccc4)C(C)=C1C3(C)C)[C@]1(OC(C)=O)CO[C@@H]1C[C@@H]2O [Taxol, paclitaxel (taxol)]
Resistant Factor [10]: >62000
Resistant Factor ([10]; listed as taxol): over 62000
IC50 ([10]; Homo sapiens, A2780, 72 h, MTT, 3 days, read-out: IC50 A2780 (Ovary) (Taxol resistant)): 62 µM
IC50 [1, 20]: 0.0195 µM
IC50 [11]: < 0.001 µM
IC50 ([12]; co-treated with 0.5 μM celastrol, read-out: mean IC50 of taxol in the presence of celastrol): 2.17 µM
IC50 ([12]; taxol alone, read-out: mean IC50 of taxol): 36 µM
Resistant Factor [13]: 894.12
Resistant Factor ([13]; listed as taxol): over 894
IC50 ([13]; Homo sapiens, A549, 72 h, MTT, 3 days, read-out: IC50 A549 (Lung) (Taxol resistant)): 30.4 µM
Resistant Factor [14]: >31000
Resistant Factor ([14]; listed as taxol): 31000
IC50 ([14]; Homo sapiens, HCT-8, 72 h, MTT, 3 days, read-out: IC50 HCT-8 (Colon) (Taxol resistant)): 32 µM
IC50 [15]: 0.034 µM
IC50 [4]: 0.00431 µM
IC50 ([16]; Homo sapiens, MCF7, 72 h, MTT, 3 days, read-out: IC50 MCF-7 (Breast) (Taxol resistant)): 5 µM
Resistant Factor ([16]; MCF-7 taxol resistant versus taxol sensitive): 5000
IC50 ([5]; MTT, 3 days): > 0.1 µM
Resistant Factor [5]: >23.2
IC50 [17]: < 0.001 µM
IC50 [18]: < 0.001 µM
IC50 [7, 20]: 0.251 µM
Resistant Factor [7]: 12.87

COC(=O)[C@]1(C)CC[C@]2(C)CC[C@]3(C)C4=CC=C5C(=CC(=O)C(O)=C5C)[C@]4(C)CC[C@@]3(C)[C@@H]2C1 [pristimerin]
P-gp activity / Rho123 accumulation (Example 9) [19]: showed P-pg inhibition
